± gives the standard deviation of the averaged measurements.
Assays:
Test in all cases: relative cell number vs DMSO control (72 h) (% of DMSO); higher = less growth inhibition (more cells)
Details in all cases: sgRNA knockout: sgNT
BT-20 = system: BT-20
Method: (§1)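 QMAP-Seq: a pool of 5 breast cancer cell lines (ZR-75-1, SKBR3, HCC-38, MDA-MB-231, BT-20), each carrying 12 doxycycline-inducible Cas9 sgRNA perturbations (11 knockouts plus non-targeting sgNT), was treated with compounds for 72 h at four 10-fold doses (10 nM-10 uM or 1 nM-1 uM range). Barcodes were amplified and sequenced, and cell number was interpolated from 293T spike-in standard curves. The result is expressed as % of the median of DMSO wells. Two biological replicates.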

HCC-38 = system: HCC-38
Method: as §1

ZR-75-1 = system: ZR-75-1
Method: as §1

MDA-MB-231 = system: MDA-MB-231
Method: as §1

SKBR3 = system: SKBR3
Method: as §1

| Compound | relative cell number (BT-20; 10 nM) | relative cell number (BT-20; 100 nM) | relative cell number (BT-20; 1000 nM) | relative cell number (BT-20; 10000 nM) | relative cell number (HCC-38; 10 nM) | relative cell number (HCC-38; 100 nM) | relative cell number (HCC-38; 1000 nM) | relative cell number (HCC-38; 10000 nM) | relative cell number (ZR-75-1; 10 nM) | relative cell number (ZR-75-1; 100 nM) | relative cell number (ZR-75-1; 1000 nM) | relative cell number (ZR-75-1; 10000 nM) | relative cell number (MDA-MB-231; 10 nM) | relative cell number (MDA-MB-231; 100 nM) | relative cell number (MDA-MB-231; 1000 nM) | relative cell number (MDA-MB-231; 10000 nM) | relative cell number (SKBR3; 10 nM) | relative cell number (SKBR3; 100 nM) | relative cell number (SKBR3; 1000 nM) | relative cell number (SKBR3; 10000 nM) | relative cell number (BT-20; 1 nM) | relative cell number (HCC-38; 1 nM) | relative cell number (ZR-75-1; 1 nM) | relative cell number (MDA-MB-231; 1 nM) | relative cell number (SKBR3; 1 nM) |
| --- | --- | --- | --- | --- | --- | --- | --- | --- | --- | --- | --- | --- | --- | --- | --- | --- | --- | --- | --- | --- | --- | --- | --- | --- | --- |
| O=c1[nH]cc(F)c(=O)[nH]1 [5-Fluorouracil] | 115 ± 7.9 | 110 ± 3.4 | 78.4 ± 7 | 57.9 ± 2.7 | 95.2 ± 6.8 | 121 ± 15 | 107 ± 21 | 66.2 ± 6.2 | 103 ± 28 | 83.2 ± 13 | 51.6 ± 1.8 | 41 ± 11 | 86.6 ± 16 | 113 ± 28 | 119 ± 16 | 49.2 ± 6.5 | 97.9 ± 14 | 79.7 ± 19 | 65.4 ± 18 | 17.5 ± 3.4 |  |  |  |  |  |
| S=c1nc[nH]c2nc[nH]c12 [6-Mercaptopurine] | 97.8 ± 13 | 101 ± 4.8 | 85.3 ± 6 | 62.7 ± 4.4 | 99.6 ± 7 | 99.7 ± 5.1 | 81.3 ± 10 | 61.3 ± 2.1 | 100 ± 55 | 66.5 ± 5.7 | 100 ± 59 | 55.5 ± 22 | 120 ± 2.9 | 79.8 ± 1.3 | 60.6 ± 15 | 63.5 ± 7.8 | 112 ± 11 | 83.1 ± 39 | 78.3 ± 21 | 48.4 ± 25 |  |  |  |  |  |
| Cc1sc2c(c1C)C(c1ccc(Cl)cc1)=N[C@@H](CC(=O)OC(C)(C)C)c1nnc(C)n1-2 [(+)-JQ1] | 99.3 ± 17 | 108 ± 1.9 | 108 ± 4.7 | 93.5 ± 4 | 104 ± 4.2 | 112 ± 33 | 93.2 ± 1.9 | 65.3 ± 1.1 | 98.5 ± 22 | 122 ± 50 | 86.2 ± 21 | 49.4 ± 1.2 | 109 ± 30 | 99.7 ± 4 | 105.4 ± 0.35 | 50.7 ± 18 | 102 ± 17 | 119 ± 21 | 91.5 ± 2.7 | 62.6 ± 3.5 |  |  |  |  |  |
| CN(C)CC[C@H](CSc1ccccc1)Nc1ccc(S(=O)(=O)NC(=O)c2ccc(N3CCN(Cc4ccccc4-c4ccc(Cl)cc4)CC3)cc2)cc1[N+](=O)[O-] [ABT737] | 93.2 ± 26 | 97.5 ± 10 | 94.8 ± 13 | 69.2 ± 5.1 | 104 ± 3.7 | 84 ± 12 | 88.2 ± 4.7 | 62.5 ± 18 | 74.8 ± 17 | 117 ± 40 | 124 ± 25 | 73.9 ± 11 | 96.3 ± 18 | 102 ± 21 | 90.4 ± 30 | 69.4 ± 16 | 84.5 ± 11 | 98.2 ± 4.7 | 85.7 ± 9.8 | 93.31 ± 0.55 |  |  |  |  |  |
| c1cc(Nc2cc(C3CC3)[nH]n2)nc(Nc2ccc3nc[nH]c3c2)n1 [APY29] | 120 ± 4.3 | 79.9 ± 16 | 88.3 ± 10 | 40.7 ± 5.9 | 91.3 ± 16 | 64.3 ± 3.1 | 26.6 ± 2.5 | 23.3 ± 0.34 | 119 ± 26 | 74 ± 39 | 23.6 ± 1.6 | 10.7 ± 9.5 | 109 ± 5.4 | 52.8 ± 4.2 | 17.1 ± 3.7 | 10.7 ± 3.8 | 110 ± 9 | 40.6 ± 1.2 | 12.5 ± 6.6 | 5.99 ± 1.9 |  |  |  |  |  |
| Clc1ccc(C2(c3ccc(-c4cn[nH]c4)cc3)CCNCC2)cc1 [AT7867] | 79.5 ± 20 | 108 ± 32 | 77.8 ± 12 | 24.8 ± 5.2 | 91.3 ± 5.8 | 64.1 ± 14 | 45.4 ± 2.5 | 50.5 ± 2.3 | 61.2 ± 35 | 64.4 ± 20 | 66.2 ± 5.2 | 11.1 ± 1.7 | 59.5 ± 17 | 84.9 ± 1.7 | 35.9 ± 6 | 14.5 ± 2.1 | 70.8 ± 4.4 | 102 ± 5 | 59.38 ± 0.082 | 10.8 ± 2.8 |  |  |  |  |  |
| COc1cc(CCc2cc(NC(=O)c3ccc(N4CC(C)NC(C)C4)cc3)n[nH]2)cc(OC)c1 (stereo not given) [AZD4547] | 66.6 ± 0.77 | 94.7 ± 4.5 | 81.9 ± 15 | 56.5 ± 2.4 | 88.6 ± 1.6 | 64.5 ± 6.9 | 54.6 ± 1.7 | 46.8 ± 1.9 | 82.1 ± 31 | 68.3 ± 13 | 83.9 ± 5.3 | 21.3 ± 10 | 79.2 ± 13 | 100.2 ± 0.6 | 99.5 ± 11 | 40.1 ± 3 | 62.3 ± 26 | 83 ± 9.8 | 94.1 ± 33 | 51 ± 14 |  |  |  |  |  |
| CN(C)C(=O)c1ccc(S(=O)(=O)c2ccc(NC(=O)[C@@](C)(O)C(F)(F)F)c(Cl)c2)cc1 [AZD7545] | 91.2 ± 24 | 103 ± 25 | 102 ± 22 | 95.7 ± 8.7 | 105 ± 6.3 | 90 ± 14 | 97.8 ± 1.1 | 82.9 ± 1.9 | 110 ± 7.3 | 116 ± 53 | 91.8 ± 25 | 42.7 ± 5.5 | 103 ± 17 | 121 ± 14 | 104 ± 39 | 89.5 ± 47 | 97.6 ± 9.6 | 103 ± 18 | 95.8 ± 11 | 70.3 ± 10 |  |  |  |  |  |
| C[C@@H](Nc1cc(F)cc(F)c1)c1cc(C(=O)N(C)C)cc2c(=O)cc(N3CCOCC3)oc12 [AZD8186] | 103 ± 9.9 | 117 ± 3.5 | 107 ± 23 | 98.3 ± 1.2 | 97.9 ± 24 | 105 ± 19 | 86.8 ± 7.5 | 79.5 ± 7.5 | 91.2 ± 19 | 103 ± 1.3 | 66.4 ± 4 | 49.1 ± 22 | 109 ± 3.1 | 134 ± 21 | 130 ± 80 | 83.4 ± 28 | 88.2 ± 0.97 | 103 ± 18 | 94.2 ± 6.8 | 59.6 ± 10 |  |  |  |  |  |
| C[C@]12CC[C@H](O)CC1=CC[C@@H]1[C@@H]2CC[C@]2(C)C(c3cccnc3)=CC[C@@H]12 [Abiraterone] | 115 ± 6.5 | 118 ± 20 | 116 ± 3.4 |  | 107 ± 4.5 | 104 ± 5.2 | 116 ± 16 |  | 115 ± 34 | 105 ± 18 | 90.5 ± 55 |  | 115 ± 3.5 | 99.4 ± 5.8 | 153 ± 19 |  | 118 ± 15 | 114 ± 42 | 114 ± 10 |  | 109 ± 10 | 109 ± 2.1 | 101 ± 16 | 127 ± 2.9 | 139 ± 37 |
| CN(C)C/C=C/C(=O)Nc1cc2c(Nc3ccc(F)c(Cl)c3)ncnc2cc1O[C@H]1CCOC1 [Afatinib] | 117 ± 13 | 66.9 ± 10 | 82.8 ± 8.8 | 20.2 ± 4.5 | 94.6 ± 18 | 101 ± 22 | 75.7 ± 7.1 | 21.2 ± 1.6 | 103 ± 7.7 | 72.2 ± 40 | 68.8 ± 6.8 | 13 ± 0.97 | 151 ± 15 | 77.1 ± 36 | 93.9 ± 5.5 | 15.6 ± 3.4 | 85.2 ± 6.7 | 34.5 ± 13 | 18.7 ± 0.37 | 10.8 ± 1.1 |  |  |  |  |  |
| COc1cc(Nc2ncc3c(n2)-c2ccc(Cl)cc2C(c2c(F)cccc2OC)=NC3)ccc1C(=O)O [Alisertib] | 92.5 ± 23 | 66.5 ± 8 | 77.8 ± 24 | 68.3 ± 5.7 | 99.89 ± 0.26 | 53.9 ± 1 | 57.4 ± 9.7 | 48.4 ± 1.9 | 82.4 ± 36 | 39.4 ± 3.1 | 42 ± 10 | 35.2 ± 1.5 | 112 ± 7.3 | 50.3 ± 15 | 59.5 ± 1.8 | 49.3 ± 8.4 | 121 ± 14 | 80.8 ± 8.3 | 77.2 ± 11 | 91.2 ± 9.5 |  |  |  |  |  |

Source: the supplement of paper PMC7661543
